Measured values as given in the NIST ThermoML archive (doi:10.1016/j.fluid.2013.08.041).
Numbers after ± are expanded uncertainties.

Conditions: Liquid; for Critical pressure: Direct measurement; for Normal boiling temperature: Ebulliometric method (Recirculating still); for Critical temperature: Visual observation in a stirred cell

Row | Structure (SMILES) | Critical pressure | Normal boiling temperature | Critical temperature
1 | Cc1cc(C)c2ccccc2c1 [1,3-dimethylnaphthalene] | 2740 ± 160 kPa | 265.1 ± 0.2 °C | 772 ± 16 K
2 | Cc1ccc(C)c2ccccc12 [1,4-dimethylnaphthalene] | 2790 ± 160 kPa | 265.1 ± 0.2 °C | 778 ± 16 K
3 | Cc1cccc2ccccc12 [1-methylnaphthalene] | 3540 ± 220 kPa | 244.6 ± 0.2 °C | 773 ± 16 K
4 | CCc1ccc2ccccc2c1 [2-ethylnaphthalene] | 2790 ± 160 kPa | 254.1 ± 0.2 °C | 763 ± 16 K
5 | Cc1ccc2ccccc2c1 [2-methylnaphthalene] | 3300 ± 200 kPa | 241.1 ± 0.2 °C | 755 ± 16 K
